Results as given in ChEMBL document CHEMBL3994630, “Antiparasitic lethality of sulfonamidebenzamides in kinetoplastids” (Bioorg Med Chem Lett, 2017).
Calls of active or inactive are those of the source. The calls are words filed in the database; no cut-off is given here.

Tests used:
[1] = Selectivity index, ratio of EC50 for cytotoxicity against human IMR90 cells to EC50 for anti-parasitic activity against Leishmania amazonensis promastigotes; format: toxicity, cell-based; conditions: read-out: Ratio EC50
Leishmania amazonensis = assay: Anti-parasitic activity against Leishmania amazonensis promastigotes after 44 hrs by CellTiter-Blue assay; format: functional
IMR-90 = assay: Cytotoxicity against human IMR90 cells after 44 to 46 hrs by CellTiter-Blue assay; format: cell-based
[2] = Selectivity index, ratio of EC50 for cytotoxicity against human IMR90 cells to EC50 for antitrypanosomal activity against Trypanosoma brucei 90-13 bloodstream forms; format: toxicity, cell-based; conditions: read-out: Ratio EC50
Trypanosoma brucei [3] = assay: Antitrypanosomal activity against Trypanosoma brucei 90-13 bloodstream forms after 72 hrs by CellTiter-Blue assay; format: functional; conditions: 90-13, 72 h
Trypanosoma brucei [4] = assay: Induction of apoptosis in Trypanosoma brucei 29-13 procyclic forms after 6 to 24 hrs by Annexin-V-FITC/propidium iodide staining based flow cytometry (reference value: 658 RFU); format: functional
Trypanosoma brucei [5] = assay: Induction of apoptosis in Trypanosoma brucei 90-13 bloodstream forms after 6 to 24 hrs by Annexin-V-FITC/propidium iodide staining based flow cytometry; format: functional
Trypanosoma brucei [6] = assay: Induction of apoptosis in Trypanosoma brucei 90-13 bloodstream forms at EC50 after 6 hrs by Annexin-V-FITC/propidium iodide staining based flow cytometry (reference value: 47.3%); format: functional
Trypanosoma brucei [7] = assay: Induction of apoptosis in Trypanosoma brucei 90-13 bloodstream forms assessed as dead cells at EC50 after 6 to 24 hrs by Annexin-V-FITC/propidium iodide staining based flow cytometry (reference value: 49.7%); format: functional

EC50 (Trypanosoma brucei [3]) [nM] | SMILES | selectivity ratio [1] | EC50 (Leishmania amazonensis) [nM] | EC50 (IMR-90) [nM] | selectivity ratio [2] | Activity (Trypanosoma brucei [4]) [RFU] | Activity (Trypanosoma brucei [5]) | Activity (Trypanosoma brucei [6]) [%] | Activity (Trypanosoma brucei [7]) [%]
110 | O=C(Nc1ccc(S(=O)(=O)c2ccccc2)cc1)c1ccc([N+](=O)[O-])o1 | > 6 | 4300 | > 25000 | > 227 | – | – | – | –
60 | O=C(Nc1ccc(S(=O)(=O)N2CCOCC2)cc1)c1ccc([N+](=O)[O-])s1 | > 19 | 1300 | > 25000 | > 417 | – | – | – | –
490 | O=C(Nc1ccc(S(=O)(=O)C2CCCCC2)cc1)c1ccc([N+](=O)[O-])o1 | > 16 | 1600 | > 25000 | > 51 | – | – | – | –
> 10000 | O=C(Nc1ccc(S(=O)(=O)N2CCOCC2)cc1)c1ccc([N+](=O)[O-])cc1 | – | > 25000 | > 25000 | – | – | – | – | –
420 | O=C(Nc1ccc(S(=O)(=O)N2CCC(F)CC2)cc1)c1ccc([N+](=O)[O-])o1 | > 3 | 7400 | > 25000 | > 60 | – | – | – | –
10400 | CC1(C)CCN(S(=O)(=O)c2cccc(NC(=O)c3cccc([N+](=O)[O-])c3)c2)CC1 | > 8 | 3000 | > 25000 | > 2 | – | – | – | –
> 10000 | O=C(Nc1ccc(S(=O)(=O)N2CCOCC2)cc1)c1ccco1 | – | > 25000 | > 25000 | – | – | – | – | –
530 | O=C(Nc1ccc(S(=O)(=O)C2=CCOC=C2)cc1)c1ccc([N+](=O)[O-])o1 | > 83 | 300 | > 25000 | > 47 | – | – | – | –
30 | CC(C)(C)C1CCN(S(=O)(=O)c2ccc(NC(=O)c3ccc([N+](=O)[O-])s3)cc2)CC1 | > 250 | 100 | > 25000 | > 833 | – | – | – | –
460 | O=C(Nc1ccc(S(=O)(=O)N2CCOCC2)cc1)c1ccc([N+](=O)[O-])o1 | > 8 | 3000 | > 25000 | > 54 | – | – | – | –
45 | CC1(C)CCN(S(=O)(=O)c2cccc(NC(=O)c3ccc([N+](=O)[O-])s3)c2)CC1 | > 19 | 1300 | > 25000 | > 556 | – | – | – | –
> 10000 | O=C(Nc1ccc(S(=O)(=O)N2CCOCC2)cc1)c1ccccc1 | – | > 25000 | > 25000 | – | – | – | – | –
7550 | CC1(C)CCN(S(=O)(=O)c2ccc(NC(=O)c3ccc(C(F)(F)F)o3)cc2)CC1 | > 2 | 10700 | > 25000 | > 3 | – | – | – | –
1470 | O=C(Nc1cccc(S(=O)(=O)N2CCOCC2)c1)c1ccc([N+](=O)[O-])o1 | > 28 | 900 | > 25000 | > 17 | – | – | – | –
5110 | CC1(C)CCN(S(=O)(=O)c2cccc(NC(=O)c3ccco3)c2)CC1 | > 21 | 1200 | > 25000 | > 5 | – | – | – | –
7500 | CC1CS(=O)(=O)CCN1/N=C/c1ccc([N+](=O)[O-])o1 (configuration not stated) [NIFURTIMOX] | – | 800 | > 25000 | – | – | – | – | –
> 10000 | Cc1ccc(C(=O)Nc2ccc(S(=O)(=O)N3CCOCC3)cc2)o1 | – | > 25000 | > 25000 | – | – | – | – | –
730 | N=C1CCN(S(=O)(=O)c2ccc(NC(=O)c3ccc([N+](=O)[O-])o3)cc2)CC1 | > 2 | 10500 | > 25000 | > 34 | – | – | – | –
10 | CC1(C)CCN(S(=O)(=O)c2ccc(NC(=O)c3ccc([N+](=O)[O-])s3)cc2)CC1 | > 250 | 100 | > 25000 | > 2500 | – | – | – | –
> 10000 | O=C(Nc1ccc(S(=O)(=O)N2CCOCC2)cc1)c1cccs1 | – | > 25000 | > 25000 | – | – | – | – | –
310 | O=C(Nc1ccc(S(=O)(=O)N2CCC(O)CC2)cc1)c1ccc([N+](=O)[O-])o1 | > 6 | 4400 | > 25000 | > 81 | 849 | Active | – | –
20 | O=C(Nc1ccc(S(=O)(=O)N2CCC3(CCCCC3)CC2)cc1)c1ccc([N+](=O)[O-])s1 | > 250 | 100 | > 25000 | > 1250 | – | – | – | –
80 | O=C(Nc1ccc(S(=O)(=O)N2CCC(Cl)CC2)cc1)c1ccc([N+](=O)[O-])o1 | > 3 | 7900 | > 25000 | > 313 | – | – | – | –
320 | CC1(C)CCN(S(=O)(=O)c2cccc(NC(=O)c3ccc([N+](=O)[O-])o3)c2)CC1 | > 250 | 100 | > 25000 | > 78 | – | – | – | –
220 | O=C(Nc1ccc(S(=O)(=O)N2CCCCC2)cc1)c1ccc([N+](=O)[O-])o1 | > 2 | 13700 | > 25000 | > 114 | – | – | – | –
120 | CC1CCN(S(=O)(=O)c2ccc(NC(=O)c3ccc([N+](=O)[O-])o3)cc2)CC1 | > 3 | 7700 | > 25000 | > 208 | – | – | – | –
6600 | CC1(C)CCN(S(=O)(=O)c2ccc(NC(=O)c3cccc([N+](=O)[O-])c3)cc2)CC1 | > 2 | 13300 | > 25000 | > 4 | – | – | – | –
30 | O=C(Nc1ccc(S(=O)(=O)N2CCC3(CCCCC3)CC2)cc1)c1ccc([N+](=O)[O-])o1 | > 17 | 1500 | > 25000 | > 833 | – | – | – | –
90 | CC1(C)CCN(S(=O)(=O)c2ccc(NC(=O)c3ccc([N+](=O)[O-])o3)cc2)CC1 | > 89 | 280 | > 25000 | > 278 | – | – | – | –

SMILES | EC50 (Trypanosoma brucei [3]) [nM] | selectivity ratio [1] | EC50 (Leishmania amazonensis) [nM] | EC50 (IMR-90) [nM] | selectivity ratio [2] | Activity (Trypanosoma brucei [4]) [RFU] | Activity (Trypanosoma brucei [5]) | Activity (Trypanosoma brucei [6]) [%] | Activity (Trypanosoma brucei [7]) [%]
CC(C)(C)C1CCN(S(=O)(=O)c2ccc(NC(=O)c3ccc([N+](=O)[O-])o3)cc2)CC1 | 30 | > 18 | 1400 | > 25000 | > 833 | – | – | 82 | 48.2
